# According to patent US9393317B2, “Peptide-conjugated oligonucleotide therapeutic and method of making and using same” (Sloan-Kettering Institute for Cancer Research, priority 2008, dated 2016):
# {C6NH2} = C6-amino linker; d = 2'-deoxy (DNA); m = 2'-O-methyl
# Columns and labels:
# Id1 = assay: Down-regulation of Id1 in tumor endothelium of MMTV-HER2/neu (YD) breast carcinoma, IHC; format: in vivo, mouse
# Experimental: Homing studies were also performed in animals bearing spontaneous tumors in MMTV-HER2/neu (YD) and PTEN+/− backgrounds. […] To test if the PCAOs down-regulate Id1 protein levels in vivo, tumor bearing transgenic MMTV-HER2/neu (YD) Id1+/− mice were injected intravenously with Id1-PCAOs. Since repeated application of the drug was necessary to yield significant down-regulation in vitro, the animals were treated with […] of Id1-PCAO or Id1-AO for three consecutive days. Over 80% of tumor vessels in animals treated with Id1-PCAO were completely negative for Id1 expression by IHC.
# YD neu transgenic animals bearing breast carcinoma were treated for 3 subsequent days with 25 nmol of either Id1-ASO or F3-Id1-ASO conjugate in PBS by i.v. injection. 24 h after the last injection animals were sacrificed, the tumor removed, fixed in paraformaldehyde and embedded in parafine. IHC staining was performed for Id1 (antibody C-20, SantaCruz Biotechnology, Santa Cruz, Calif.) on sections.
# [1] = system: endothelial cells (HUVECs and the murine endothelioma cell line EOMA); assay: Uptake of fluorescence labeled Id1-PCAO by endothelial cells, confocal fluorescence microscopy; format: cell-based; conditions: 200 nM, no lipid or other carrier
# Experimental: In order to determine if the Id1 PCAO retained the homing specificity of the F3 peptide and could be taken up by cells in the absence of lipid or other specialized carrier, fluorescence labeled Id1-PCAOs were supplied to different cell lines at a concentration of 200 nM. […] Fluorescein and tetra methyl-rhodamine red labeled PCAOs were also tested to control for the effects of the fluorophore and similar results were obtained. To rule out effects from the fixation process we performed epifluorescence live imaging on viable HUVECs and HeLa cells and similar results were observed.
# HUVEC were seeded 24 h prior to transfection at 10^5 cells/well in six-well MWDs in standard growth media (EGM-2) without antibiotics. At the day of transfection the AO-conjugates and control oligos were diluted in EGM-2 to the indicated concentration. Media was replaced with the supplemented EGM-2. The procedure was repeated every 24 h for two more days, samples were drawn at the indicated time points and analyzed via western blot. Other cell lines were treated similarly, with the exception that Id1-PCAO was added to standard growth media, DME or RPMI 1640 in accordance to cell type. Uptake studies in different cell lines with fluorescence labeled Id1-PCAO were performed in both the standard growth media (DME, RPMI 1640 or EGM-2) or in OptiMEM I (supplemented with 2% FBS) to control for media effects.
# HUVEC = assay: Wound healing (scratch) assay; format: cell-based, human; conditions: 200 nM, 72 h treatment, 22 h after scratch
# Experimental: HUVEC (4th passage) were seeded 100,000 cells into the wells of a fibronectin coated two-well chamber slides (BD Bioscience). Medium was exchanged after 18 h with standard medium containing either F3-ASO conjugates or ASO at a concentration of 200 nM. The treatment was repeated every 24 h for two more days. 72 h after starting the treatment a scratch was applied with a micropipette-tip. Media was removed the cell-layer once washed with PBS and media containing the F3-conjugate or the control ASO was added. The chamber slides were incubated at 37° C. with 5% CO2 for 22 h. The cells were washed with PBS, fixed with 4% paraformaldehyde in PBS for 20 min at r.t., and washed twice with PBS. The slides were mounted and images were taken under a light microscope to access the grade of closure of the applied scratch.
# HUVEC were plated in fibronectin coated two-well chamber slides (BD Bioscience) at 2.5×10^4 cells/well. Growth media was supplemented with 200 nM Id1-PCAO (or Id1-AO) and renewed every 24 h. 72 h after plating a scratch was applied using a 20 μl pipette tip. Chambers were washed with media and supplemented media was added. 18 h after the scratch was applied, cells were fixed and imaged.
substance,measurement,setting,value
"GCACCagctccttgaggcGUGAG (antisense GCACCAGCTCCTTGAGGCGUGAG; sugars from the 5' end m5 d13 m5, 5' {C6NH2}, backbone and methylation of C not given here; DNA gap phosphorothioate linked, F3 peptide conjugate form, further chemistry not fully specified) [Id1-AO, ID No. 2]",down-regulation of Id1 in tumor vessels,"Id1; MMTV-HER2/neu (YD) Id1+/− mice, 15 nmol/d i.v., three consecutive days",no detectable down-regulation of Id1
same,"Id1 expression in tumor endothelium, IHC","Id1; YD neu transgenic animals, 25 nmol i.v., 3 subsequent days, 24 h after last injection",no effect
same,uptake / internalization into endothelial cells,[1],no internalization was observed
same,closure of the applied scratch,HUVEC,closed completely
